This assay deals with ROCK2 (Homo sapiens, UniProt O75116). In words: ROCK assay: phosphorylation of FITC peptide substrate, LABCHIP 3000 mobility shift. The conditions noted are these: 5 μM ATP, 1.5 μM peptide substrate; read-out: ROCK2 Activity (ROCK IC50 range). The format is biochemical. The gist of the method: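 IC50 values come from curve-fitting percent kinase inhibition across a compound dilution series. The reaction is started with Rho kinase variant in HEPES pH 7.5 buffer with MgCl2, Brij-35 and DTT, with 5 μM ATP, 1.5 μM FITC-labelled peptide and under 2% DMSO. After EDTA quench, product and substrate are separated by microfluidic mobility shift.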
Chain of ROCK2 (O75116 whole entry, species assumed): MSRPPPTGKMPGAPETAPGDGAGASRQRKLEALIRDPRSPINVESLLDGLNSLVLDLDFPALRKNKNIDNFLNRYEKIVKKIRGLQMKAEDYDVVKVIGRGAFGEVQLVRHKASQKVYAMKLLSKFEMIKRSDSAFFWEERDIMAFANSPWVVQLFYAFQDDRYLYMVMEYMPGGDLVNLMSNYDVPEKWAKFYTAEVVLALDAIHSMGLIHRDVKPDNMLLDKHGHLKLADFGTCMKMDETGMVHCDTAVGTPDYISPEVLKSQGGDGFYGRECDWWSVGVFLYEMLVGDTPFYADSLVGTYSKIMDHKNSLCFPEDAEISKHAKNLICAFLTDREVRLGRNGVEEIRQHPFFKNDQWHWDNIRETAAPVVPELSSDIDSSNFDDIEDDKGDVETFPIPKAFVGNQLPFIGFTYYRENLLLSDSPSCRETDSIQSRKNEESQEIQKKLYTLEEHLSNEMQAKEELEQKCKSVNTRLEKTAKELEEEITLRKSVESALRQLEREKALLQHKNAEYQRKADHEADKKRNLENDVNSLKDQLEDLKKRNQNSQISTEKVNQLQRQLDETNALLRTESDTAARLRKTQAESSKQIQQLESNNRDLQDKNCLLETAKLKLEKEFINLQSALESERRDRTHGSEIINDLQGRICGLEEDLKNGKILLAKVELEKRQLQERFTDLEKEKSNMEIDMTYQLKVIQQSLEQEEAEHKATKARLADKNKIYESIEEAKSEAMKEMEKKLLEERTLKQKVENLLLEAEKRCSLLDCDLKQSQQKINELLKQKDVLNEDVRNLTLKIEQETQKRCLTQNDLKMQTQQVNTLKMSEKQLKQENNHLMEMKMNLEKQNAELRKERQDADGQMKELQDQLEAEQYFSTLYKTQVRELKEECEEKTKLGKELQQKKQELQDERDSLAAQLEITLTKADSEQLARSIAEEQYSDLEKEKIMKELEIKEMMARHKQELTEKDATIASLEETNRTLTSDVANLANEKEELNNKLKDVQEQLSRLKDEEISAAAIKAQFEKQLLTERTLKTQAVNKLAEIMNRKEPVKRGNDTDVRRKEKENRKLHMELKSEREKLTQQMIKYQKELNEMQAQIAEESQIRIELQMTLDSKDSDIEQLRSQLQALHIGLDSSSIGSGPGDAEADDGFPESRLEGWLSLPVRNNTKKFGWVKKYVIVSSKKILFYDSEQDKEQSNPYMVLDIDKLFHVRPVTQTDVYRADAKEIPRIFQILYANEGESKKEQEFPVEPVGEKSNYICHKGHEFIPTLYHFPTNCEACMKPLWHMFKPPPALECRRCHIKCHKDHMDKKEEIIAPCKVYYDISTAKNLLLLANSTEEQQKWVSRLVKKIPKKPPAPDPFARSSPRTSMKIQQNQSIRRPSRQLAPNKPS

Structures can show the parent of a compound that is named as a salt.

One may read the IC50 as the concentration needed to halve the response being measured. As to `[H][C@]1(c2n[nH]c(=O)c3ccccc32)C[C@]2(C[C@@H](NC(=O)c3cnc4cc(C)ccn34)C2)C1` (stereo partly drawn) [Example 412, 7-methyl-N-((aR)-6-(4-oxo-3,4-dihydrophthalazin-1-yl)spiro[3.3]heptan-2-yl)imidazo[1,2-a]pyridine-3-carboxamide], the IC50 was in the range of 2.01 to 5 nM.
Then `[H][C@]1(c2n[nH]c(=O)c3ccccc32)C[C@]2(C[C@@H](NC(=O)c3cnc4c(OCc5ccccc5)cccn34)C2)C1` (stereo partly drawn) [Example 413, 8-(benzyloxy)-N-((aR)-6-(4-oxo-3,4-dihydrophthalazin-1-yl)spiro[3.3]heptan-2-yl)imidazo[1,2-a]pyridine-3-carboxamide], with 0.2 to 2 nM.
`[H][C@]1(c2n[nH]c(=O)c3ccccc32)C[C@]2(C[C@@H](NC(=O)c3cnc4cc(SC)ccn34)C2)C1` (stereo partly drawn) [Example 414, 7-(methylthio)-N-((aR)-6-(4-oxo-3,4-dihydrophthalazin-1-yl)spiro[3.3]heptan-2-yl)imidazo[1,2-a]pyridine-3-carboxamide]: the IC50 was 0.2 to 2 nM.
Then `[H][C@]1(c2n[nH]c(=O)c3ccccc32)C[C@]2(C[C@@H](NC(=O)c3cc4n(n3)CCNC4=O)C2)C1` (stereo partly drawn) [Example 415, 4-oxo-N-((aR)-6-(4-oxo-3,4-dihydrophthalazin-1-yl)spiro[3,3]heptan-2-yl)-4,5,6,7-tetrahydropyrazolo[1,5-a]pyrazine-2-carboxamide], with 100 to 2100 nM; and `[H][C@]1(c2n[nH]c(=O)c3ccccc32)C[C@]2(C[C@@H](NC(=O)c3ccc(-c4cn[nH]c4)c(OC)c3)C2)C1` (stereo partly drawn) [Example 416, 3-methoxy-N-((aR)-6-(4-oxo-3,4-dihydrophthalazin-1-yl)spiro[3.3]heptan-2-yl)-4-(1H-pyrazol-4-yl)benzamide], with 0.2 to 2 nM; and `[H][C@]1(c2n[nH]c(=O)c3ccccc32)C[C@]2(C[C@@H](NC(=O)c3ccc(-c4cn[nH]c4)c(C#N)c3)C2)C1` (stereo partly drawn) [Example 417, 3-cyano-N-((aR)-6-(4-oxo-3,4-dihydrophthalazin-1-yl)spiro[3.3]heptan-2-yl)-4-(1H-pyrazol-4-yl)benzamide], with 0.2 to 2 nM.
With `[H][C@]1(c2n[nH]c(=O)c3ccccc32)C[C@]2(C[C@@H](NC(=O)c3ccc(-c4cn[nH]c4)c(C)c3)C2)C1` (stereo partly drawn) [Example 418, 3-methyl-N-((aR)-6-(4-oxo-3,4-dihydrophthalazin-1-yl)spiro[3,3]heptan-2-yl)-4-(1H-pyrazol-4-yl)benzamide], the IC50 lay within 0.2 to 2 nM.
Then `[H][C@]1(c2n[nH]c(=O)c3ccccc32)C[C@]2(C[C@@H](NC(=O)c3ccc(-c4cn[nH]c4)cc3OC)C2)C1` (stereo partly drawn) [Example 419, 2-methoxy-N-((aR)-6-(4-oxo-3,4-dihydrophthalazin-1-yl)spiro[3.3]heptan-2-yl)-4-(1H-pyrazol-4-yl)benzamide], with 2.01 to 5 nM; and `[H][C@]1(c2n[nH]c(=O)c3ccccc32)C[C@]2(C[C@@H](NC(=O)c3cc4cccc(-c5cnn(C)c5)c4[nH]3)C2)C1` (stereo partly drawn) [Example 420, 7-(1-methyl-1H-pyrazol-4-yl)-N-((aR)-6-(4-oxo-3,4-dihydrophthalazin-1-yl)spiro[3.3]heptan-2-yl)-1H-indole-2-carboxamide], with 5.1 to 15 nM.
`[H][C@]1(c2n[nH]c(=O)c3ccccc32)C[C@]2(C[C@@H](NC(=O)c3ccc4c(c3)COc3cncnc3-4)C2)C1` (stereo partly drawn) [Example 421, N-((aR)-6-(4-oxo-3,4-dihydrophthalazin-1-yl)spiro[3.3]heptan-2-yl)-6H-isochromeno[4,3-d]pyrimidine-8-carboxamide]: the IC50 fell in the range of 15.1 to 100 nM.
Regarding `[H][C@]1(c2n[nH]c(=O)c3ccccc32)C[C@]2(C[C@@H](NC(=O)c3ccc(-c4cnn(C)c4)c(OC)c3)C2)C1` (stereo partly drawn) [Example 422, 3-methoxy-4-(1-methyl-1H-pyrazol-4-yl)-N-((aR)-6-(4-oxo-3,4-dihydrophthalazin-1-yl)spiro[3.3]heptan-2-yl)benzamide], the IC50 was in the range of 2.01 to 5 nM.
As to `[H][C@]1(c2n[nH]c(=O)c3ccccc32)C[C@]2(C[C@@H](NC(=O)c3ccc(-c4cnn(C)c4)c(F)c3)C2)C1` (stereo partly drawn) [Example 423, 3-fluoro-4-(1-methyl-1H-pyrazol-4-yl)-N-((aR)-6-(4-oxo-3,4-dihydrophthalazin-1-yl)spiro[3.3]heptan-2-yl)benzamide], the IC50 fell in the range of 2.01 to 5 nM.
As for `[H][C@]1(c2n[nH]c(=O)c3ccccc32)C[C@]2(C[C@@H](NC(=O)c3ccc(-c4cnn(C)c4)nc3)C2)C1` (stereo partly drawn) [Example 425, 6-(1-methyl-1H-pyrazol-4-yl)-N-((aR)-6-(4-oxo-3,4-dihydrophthalazin-1-yl)spiro[3.3]heptan-2-yl)nicotinamide], the IC50 was 5.1 to 15 nM.
Then `[H][C@]1(c2n[nH]c(=O)c3ccccc32)C[C@]2(C[C@@H](NC(=O)c3cnc4cc(C(C)=O)ccn34)C2)C1` (stereo partly drawn) [Example 426, 7-acetyl-N-((aR)-6-(4-oxo-3,4-dihydrophthalazin-1-yl)spiro[3.3]heptan-2-yl)imidazo[1,2-a]pyridine-3-carboxamide], with 0.2 to 2 nM; and `[2H]C([2H])([2H])n1cc(-c2ccc(C(=O)N[C@H]3CC4(C3)C[C@H](c3n[nH]c(=O)c5ccccc53)C4)cc2F)cn1` (stereo partly drawn) [Example 427, 3-fluoro-4-(1-d3-methyl-1H-pyrazol-4-yl)-N-((aR)-6-(4-oxo-3,4-dihydrophthalazin-1-yl)spiro[3.3]heptan-2-yl)benzamide], with 5.1 to 15 nM.
As for `[H][C@]1(c2n[nH]c(=O)c3ccccc32)C[C@]2(C[C@@H](NC(=O)c3ccc(-c4cnn(C(F)F)c4)c(F)c3)C2)C1` (stereo partly drawn) [Example 428, 4-(1-(difluoromethyl)-1H-pyrazol-4-yl)-3-fluoro-N-((aR)-6-(4-oxo-3,4-dihydrophthalazin-1-yl)spiro[3.3]heptan-2-yl)benzamide], the figure is 5.1 to 15 nM; as for `[H][C@]1(c2n[nH]c(=O)c3ccccc32)C[C@]2(C[C@@H](NC(=O)c3cnc4cc(C(C)(C)O)ccn34)C2)C1` (stereo partly drawn) [Example 429, 7-(2-hydroxypropan-2-yl)-N-((aR)-6-(4-oxo-3,4-dihydrophthalazin-1-yl)spiro[3.3]heptan-2-yl)imidazo[1,2-a]pyridine-3-carboxamide], 15.1 to 100 nM; as for `[H][C@]1(c2n[nH]c(=O)c3ccccc32)C[C@]2(C[C@@H](NC(=O)c3cnc4cc(C(C)O)ccn34)C2)C1` (stereo partly drawn) [Example 430, 7-(1-hydroxyethyl)-N-((aR)-6-(4-oxo-3,4-dihydrophthalazin-1-yl)spiro[3.3]heptan-2-yl)imidazo[1,2-a]pyridine-3-carboxamide], 5.1 to 15 nM.
As for `[H][C@]1(c2n[nH]c(=O)c3ccccc32)C[C@]2(C[C@@H](NC(=O)c3cnc4cc(OC5CCS(=O)(=O)CC5)ccn34)C2)C1` (stereo partly drawn) [Example 431, 7-((1,1-dioxidotetrahydro-2H-thiopyran-4-yl)oxy)-N-((aR)-6-(4-oxo-3,4-dihydrophthalazin-1-yl)spiro[3.3]heptan-2-yl)imidazo[1,2-a]pyridine-3-carboxamide], the figure is 0.2 to 2 nM; as for `[H][C@]1(c2n[nH]c(=O)c3ccccc32)C[C@]2(C[C@@H](NC(=O)c3cnc4cc(OCCC(F)(F)F)ccn34)C2)C1` (stereo partly drawn) [Example 432, N-((aR)-6-(4-oxo-3,4-dihydrophthalazin-1-yl)spiro[3.3]heptan-2-yl)-7-(3,3,3-trifluoro-propoxy)imidazo[1,2-a]pyridine-3-carboxamide], 2.01 to 5 nM.
Turning to `[H][C@]1(c2n[nH]c(=O)c3ccccc32)C[C@]2(C[C@@H](NC(=O)c3cnc4cc(OC(CF)CF)ccn34)C2)C1` (stereo partly drawn) [Example 433, 7-((1,3-difluoropropan-2-yl)oxy)-N-((aR)-6-(4-oxo-3,4-dihydrophthalazin-1-yl)spiro[3.3]heptan-2-yl)imidazo[1,2-a]pyridine-3-carboxamide], the IC50 lay within 2.01 to 5 nM.
As for `[H][C@]1(c2n[nH]c(=O)c3ccccc32)C[C@]2(C[C@@H](NC(=O)c3cnc4cc(Oc5ccccn5)ccn34)C2)C1` (stereo partly drawn) [Example 434, N-((aR)-6-(4-oxo-3,4-dihydrophthalazin-1-yl)spiro[3.3]heptan-2-yl)-7-(pyridin-2-yloxy)imidazo[1,2-a]pyridine-3-carboxamidc], the figure is 0.2 to 2 nM; as for `[H][C@]1(c2n[nH]c(=O)c3ccccc32)C[C@]2(C[C@@H](NC(=O)c3nc(C(C)C)n4ccccc34)C2)C1` (stereo partly drawn) [Example 435, 3-isopropyl-N-((aR)-6-(4-oxo-3,4-dihydrophthalazin-1-yl)spiro[3.3]heptan-2-yl)imidazo[1,5-a]pyridine-1-carboxamide], 5.1 to 15 nM.
Then `[H][C@]1(c2n[nH]c(=O)c3ccccc32)C[C@]2(C[C@@H](NC(=O)c3cnc4cc(OCC(F)F)ccn34)C2)C1` (stereo partly drawn) [Example 436, 7-(2,2-difluoroethoxy)-N-((aR)-6-(4-oxo-3,4-dihydrophthalazin-1-yl)spiro[3.3]heptan-2-yl)imidazo[1,2-a]pyridine-3-carboxamide], with 0.2 to 2 nM.
For `[H][C@]1(c2n[nH]c(=O)c3ccccc32)C[C@]2(C[C@@H](NC(=O)c3cnc4cc(OC(C)C)ccn34)C2)C1` (stereo partly drawn) [Example 437, 7-isopropoxy-N-((aR)-6-(4-oxo-3,4-dihydrophthalazin-1-yl)spiro[3.3]heptan-2-yl)imidazo[1,2-a]pyridine-3-carboxamide], the IC50 lay within 2.01 to 5 nM.
For `[H][C@]1(c2n[nH]c(=O)c3ccccc32)C[C@]2(C[C@@H](NC(=O)c3cnn4cccc(N5CCOCC5)c34)C2)C1` (stereo partly drawn) [Example 438, 4-morpholino-N-((aR)-6-(4-oxo-3,4-dihydrophthalazin-1-yl)spiro[3.3]heptan-2-yl)pyrazolo[1,5-a]pyridine-3-carboxamide], the IC50 fell in the range of 100 to 2100 nM.
As for `CCn1cc(-c2ccn3c(C(=O)N[C@H]4CC5(C4)C[C@H](c4n[nH]c(=O)c6ccccc64)C5)cnc3c2)cn1` (stereo partly drawn) [Example 439, 7-(1-ethyl-1H-pyrazol-4-yl)-N-((aR)-6-(4-oxo-3,4-dihydrophthalazin-1-yl)spiro[3.3]heptan-2-yl)imidazo[1,2-a]pyridine-3-carboxamide, TFA salt], the figure is 0.2 to 2 nM.
